Measurements published in patent publication US7173004B2, “Macrocyclic isoquinoline peptide inhibitors of hepatitis C virus” (Bristol-Myers Squibb Company, priority 2003, dated 2007).

biological target: T1, HCV NS3/4A protease complex, BMS strain (genotype 1a) (UniProt P27958, C1454S/C1711G, species not given/STRAIN_BMS); assay: Recombinant HCV NS3/4A protease complex FRET peptide assay, BMS strain; assay type: biochemical; conditions: NS3/4A BMS Strain; activity range classes
T1 construct: b1001: DNA encoding the recombinant HCV NS3/4A protease complex (amino acids 1027 to 1711) ... a three-lysine solubilizing tail was added at the 3′-end of the NS4A coding region; fused on or other part: Three-lysine solubilising tail at the C-terminus of NS4A; A His tag is implied by the pET21b vector and Ni-NTA purification
Text: Recombinant HCV NS3/4A Protease Complex FRET Peptide Assay
The purpose of this in vitro assay was to measure the inhibition of HCV NS3 protease complexes, derived from the BMS strain, H77C strain or J416S strain, as described below, by compounds of the present invention. This assay provides an indication of how effective compounds of the present invention would be in inhibiting HCV proteolytic activity.
Serum from an HCV-infected patient was obtained from Dr. T. Wright, San Francisco Hospital. An engineered full-length cDNA (compliment deoxyribonucleic acid) template of the HCV genome (BMS strain) was constructed from DNA fragments obtained by reverse transcription-PCR (RT-PCR) of serum RNA (ribonucleic acid) and using primers selected on the basis of homology between other genotype 1a strains. From the determination of the entire genome sequence, a genotype 1a was assigned to the HCV isolate according to the classification of Simmonds et al. (See P Simmonds, K A Rose, S Graham, S W Chan, F McOmish, B C Dow, E A Follett, P L Yap and H Marsden, J. Clin. Microbiol., 31(6), 1493–1503 (1993)). […] The infectious clones, H77C (1a genotype) and J4L6S (1b genotype) were obtained from R. Purcell (NIH) and the sequences are published in Genbank (AAB67036, see Yanagi, M., Purcell, R. H., Emerson, S. U. and Bukh, J. Proc. Natl. Acad. Sci. U.S.A. 94(16), 8738–8743 (1997); AF054247, see Yanagi, M., St Claire, M., Shapiro, M., Emerson, S. U., Purcell, R. H. and Bukh, J, Virology 244 (1), 161–172. (1998)).
The H77C and J4L6S strains were used for production of recombinant NS3/4A protease complexes. DNA encoding the recombinant HCV NS3/4A protease complex (amino acids 1027 to 1711) for these strains were manipulated as described by P. Gallinari et al. (see Gallinari P, Paolini C, Brennan D, Nardi C, Steinkuhler C, De Francesco R. Biochemistry. 38(17):5620–32, (1999)). Briefly, a three-lysine solubilizing tail was added at the 3′-end of the NS4A coding region. The cysteine in the P1 position of the NS4A-NS4B cleavage site (amino acid 1711) was changed to a glycine to avoid the proteolytic cleavage of the lysine tag. Furthermore, a cysteine to serine mutation was introduced by PCR at amino acid position 1454 to prevent the autolytic cleavage in the NS3 helicase domain. The variant DNA fragment was cloned in the pET21b bacterial expression vector (Novagen) and the NS3/4A complex was expressed in Escherichia coli strain BL21 (DE3) (Invitrogen) following the protocol described by P. Gallinari et al. (see Gallinari P, Brennan D, Nardi C, Brunetti M, Tomei L, Steinkuhler C, De Francesco R., J. Virol. 72(8):6758–69 (1998)) with modifications. Briefly, NS3/4A expression was induced with 0.5 mM Isopropyl β-D-1-thiogalactopyranoside (IPTG) for 22 hr at 20° C. A typical fermentation (10 L) yielded approximately 80 g of wet cell paste. The cells were resuspended in lysis buffer (10 mL/g) consisting of 25 mM N-(2-Hydroxyethyl)piperazine-N′-(2-Ethane Sulfonic acid) (HEPES), pH7.5, 20% glycerol, 500 mM Sodium Chloride (NaCl), 0.5% Triton-X100, 1 microgram/milliliter (“μg/mL”) lysozyme, 5 mM Magnesium Chloride (MgCl2), 1 ug/ml DnaseI, 5 mM β-Mercaptoethanol (βME), Protease inhibitor—Ethylenediamine Tetraacetic acid (EDTA) free (Roche), homogenized and incubated for 20 mins at 4° C. The homogenate was sonicated and clarified by ultra-centrifugation at 235000 g for 1 hr at 4° C. Imidazole was added to the supernatant to a final concentration of 15 mM and the pH adjusted to 8.0. The crude protein extract was loaded on a Nickel-Nitrilotriacetic acid (Ni-NTA) column pre-equilibrated with buffer B (25 mM HEPES, pH8.0, 20% glycerol, 500 mM NaCl, 0.5% Triton-X100, 15 mM imidazole, 5 mM βME). The sample was loaded at a flow rate of 1 mL/min. The column was washed with 15 column volumes of buffer C (same as buffer B except with 0.2% Triton-X100). The protein was eluted with 5 column volumes of buffer D (same as buffer C except with 200 mM Imidazole). […]

Q: How did the IC50 turn out when `COc1ccc2c(O[C@@H]3C[C@H]4C(=O)N[C@]5(C(=O)O)C[C@H]5/C=C\CCCOC[C@H](NC(=O)OC(C)(C)C)C(=O)N4C3)nccc2c1` [Compound 84, (1S,4R,6S,14S,18R)-7-cis-14-tert-Butoxycarbonylamino-18-(6-methoxyisoquinolin-1-yloxy)-2,15-dioxo-12-oxa-3,16-diazatricyclo[14.3.0.0^4,6]-nonadec-7-ene-4-carboxylic acid] was run?
A: The IC50 was 50 to 500 nM.

Q: For `CC(C)(C)OC(=O)N[C@H]1CN(S(=O)(=O)c2ccccc2[N+](=O)[O-])CCC/C=C\[C@@H]2C[C@@]2(C(=O)O)NC(=O)[C@@H]2C[C@@H](Oc3nccc4ccccc34)CN2C1=O` [Compound 144], which IC50 is on record?
A: Its IC50 is 500 to 5000 nM.

Q: Which IC50 does the source give for `COc1ccc2c(O[C@@H]3C[C@H]4C(=O)N[C@]5(C(=O)O)C[C@H]5/C=C\CCCO[C@H](C)[C@H](NC(=O)OC(C)(C)C)C(=O)N4C3)nccc2c1` [Compound 61] here?
A: The IC50 was 500 to 5000 nM.

Q: How did the IC50 turn out when `COc1ccc2c(OC3CC4C(=O)NC5(C(=O)O)CC5C=CCCCCC(NC(=O)OC(C)(C)C)C(=O)N4C3)nccc2c1` (centres unmarked) [Compound 143] was run?
A: Its IC50 is 50 to 500 nM.

same assay, conditions: NS3/4A BMS strain; activity range symbols

Q: For `CCCNC(=O)NC1CCCCCC=CC2CC2(C(=O)NS(=O)(=O)C2CC2)NC(=O)C2CC(Oc3nccc4ccccc34)CN2C1=O` (centres unmarked) [Compound 23], which IC50 is on record?
A: Its IC50 is under 50 nM.

Q: Which IC50 does the source give for `COc1ccc2c(OC3CC4C(=O)NC5(C(=O)NS(=O)(=O)C6(C)CC6)CC5C=CCCCOC(C)C(NC(=O)OC(C)(C)C)C(=O)N4C3)nccc2c1` (centres unmarked) [Compound 66] here?
A: Its IC50 is under 50 nM.

Q: How did the IC50 turn out when `CC(C)OC(=O)N[C@H]1CCCCC/C=C\[C@@H]2C[C@@]2(C(=O)NS(=O)(=O)C2CC2)NC(=O)[C@@H]2C[C@@H](Oc3nccc4ccccc34)CN2C1=O` [Compound 16, [4-Cyclopropanesulfonylaminocarbonyl-18-(isoquinolin-1-yloxy)-2,15-dioxo-3,16-diaza-tricyclo[14.3.0.0^4,6]nonadec-7-en-14-yl]-carbamic acid isopropyl ester] was run?
A: The IC50 was under 50 nM.

Q: How did the IC50 turn out when `CCC1(S(=O)(=O)NC(=O)C23CC2C=CCCCCCC(NC(=O)OC(C)(C)C)C(=O)N2CC(Oc4nccc5cc(OC)ccc45)CC2C(=O)N3)CC1` (centres unmarked) [Compound 54] was run?
A: The IC50 was under 50 nM.

Q: How did the IC50 turn out when `COc1ccc2c(OC3CC4C(=O)NC5(C(=O)NS(=O)(=O)C6(C)CC6)CC5C=CCOCCCC(NC(=O)OC(C)(C)C)C(=O)N4C3)nccc2c1` (centres unmarked) [Compound 29] was run?
A: The IC50 was under 50 nM.

Q: For `CCCC1(S(=O)(=O)NC(=O)[C@@]23C[C@H]2/C=C\CCCCC[C@H](NC(=O)OC(C)(C)C)C(=O)N2C[C@H](Oc4nccc5ccccc45)C[C@H]2C(=O)N3)CC1` [Compound 6, [18-(Isoquinolin-1-yloxy)-2,15-dioxo-4-(1-propyl-cyclopropanesulfonylaminocarbonyl)-3,16-diaza-tricyclo[14.3.0.0^4,6]nonadec-7-en-14-yl]-carbamic acid tert-butyl ester], which IC50 is on record?
A: Its IC50 is under 50 nM.

Q: Which IC50 does the source give for `CC(C)(C)OC(=O)N[C@H]1CCCCC/C=C\[C@@H]2C[C@@]2(C(=O)NS(=O)(=O)C2CC2)NC(=O)[C@@H]2C[C@@H](Oc3nc(-c4ccccc4)cc4ccccc34)CN2C1=O` [Compound 58, [(Z)-(1S,4R,14S,18R)-4-cyclopropanesulfonylaminocarbonyl-2,15-dioxo-18-(3-phenyl-isoquinolin-1-yloxy)-3,16-diaza-tricyclo[14.3.0.0^4,6]nonadec-7-en-14-yl]-carbamic acid tert-butyl ester] here?
A: The IC50 was under 50 nM.

Q: With `CC(C)(C)OC(=O)N[C@H]1CCCCC/C=C\[C@@H]2C[C@@]2(C(=O)NS(=O)(=O)C2(C)CC2)NC(=O)[C@@H]2C[C@@H](Oc3nccc4ccccc34)CN2C1=O` [Compound 8, [18-(Isoquinolin-1-yloxy)-4-(1-methyl-cyclopropanesulfonylaminocarbonyl)-2,15-dioxo-3,16-diaza-tricyclo[14.3.0.0^4,6]nonadec-7-en-14-yl]-carbamic acid tert-butyl ester] as the compound, how does the IC50 read?
A: Its IC50 is under 50 nM.

Q: How did the IC50 turn out when `COc1ccc2c(OC3CC4C(=O)NC5(C(=O)NS(=O)(=O)C6CC6)CC5C=CCCCSCC(NC(=O)OC(C)C)C(=O)N4C3)nccc2c1` (centres unmarked) [Compound 74] was run?
A: Its IC50 is under 50 nM.

Q: With `COc1ccc2c(OC3CC4C(=O)NC5(C(=O)NS(=O)(=O)C6CC6)CC5C=CCCCOC(C)C(NC(=O)NC5CCCC5)C(=O)N4C3)nccc2c1` (centres unmarked) [Compound 65] as the compound, how does the IC50 read?
A: The IC50 was under 50 nM.
